The source of these data is ChEMBL document CHEMBL3864146, “5-Alkyloxytryptamines are membrane-targeting, broad-spectrum antibiotics” (Bioorg Med Chem Lett, 2016).

Assay [1] has as its system Escherichia coli. Put plainly: Antibacterial activity against Escherichia coli BW25113 after 16 to 18 hrs by micro-dilution method. It is filed as functional.
Assay [2] has as its system Escherichia coli. The assay can be described thus: Antibacterial activity against tolC-deficient Escherichia coli BW25113 after 16 to 18 hrs by micro-dilution method. It is filed as functional.
The subject of a further assay is Bacillus subtilis. The assay can be described thus: Antibacterial activity against Bacillus subtilis 168 after 16 to 18 hrs by micro-dilution method. It is filed as functional. The conditions noted are these: subsp. subtilis str. 168.
In another assay the test system is Pseudomonas aeruginosa. Put plainly: Antibacterial activity against Pseudomonas aeruginosa after 16 to 18 hrs by micro-dilution method. It is filed as functional.
The subject of another assay is Salmonella typhimurium. Put plainly: Antibacterial activity against Salmonella typhimurium after 16 to 18 hrs by micro-dilution method. It is filed as functional, Salmonella enterica subsp. enterica serovar Typhimurium. The conditions noted are these: Salmonella enterica.
Another assay has as its system Vibrio cholerae. The assay can be described thus: Antibacterial activity against Vibrio cholerae after 16 to 18 hrs by micro-dilution method. It is filed as functional.
The subject of a further assay is Shigella boydii. Put plainly: Antibacterial activity against Shigella boydii after 16 to 18 hrs by micro-dilution method. It is filed as functional.
The test system of another assay is Klebsiella pneumoniae. Put plainly: Antibacterial activity against Klebsiella pneumoniae after 16 to 18 hrs by micro-dilution method. It is filed as functional.
The next assay concerns Klebsiella aerogenes. The assay can be described thus: Antibacterial activity against Enterobacter aerogenes after 16 to 18 hrs by micro-dilution method. It is filed as functional.
For a further assay, the system named is Acinetobacter baumannii. The assay can be described thus: Antibacterial activity against Acinetobacter baumannii after 16 to 18 hrs by micro-dilution method. It is filed as functional.
The subject of another assay is Edwardsiella tarda. The assay can be described thus: Antibacterial activity against Edwardsiella tarda after 16 to 18 hrs by micro-dilution method. It is filed as functional.
The subject of another assay is Morganella morganii. The assay can be described thus: Antibacterial activity against Morganella morganii after 16 to 18 hrs by micro-dilution method. It is filed as functional.
For the next assay, the system named is Staphylococcus aureus. The assay can be described thus: Antibacterial activity against Staphylococcus aureus after 16 to 18 hrs by micro-dilution method. It is filed as functional.
The subject of assay [3] is Escherichia coli. The assay can be described thus: Induction of membrane permeabilization in Escherichia coli BW25113 at MIC after 15 mins by propidium iodide staining-based fluorescence microplate reader method relative to 50% ethanol. It is filed as functional.

Values after ≈ are worked out from the molar mass of the structure shown. Bounds are passed on as bounds.

With `CCCCCCCCCOc1ccc2[nH]cc(CCNC(=O)OC(C)(C)C)c2c1`, the MIC in the assay on Escherichia coli [1], with Escherichia coli [2], against Bacillus subtilis, in the assay on Pseudomonas aeruginosa, in the assay on Salmonella typhimurium and in the assay on Vibrio cholerae was over 130 µg/mL in each case. The MIC against Shigella boydii, against Klebsiella pneumoniae, in the assay on Klebsiella aerogenes, in the assay with Acinetobacter baumannii, against Edwardsiella tarda and with Morganella morganii was over 130 µg/mL throughout. In addition, the MIC in the assay with Staphylococcus aureus was over 130 µg/mL.

`CCCCCCCCCOc1ccc2[nH]cc(CC[N+](C)(C)C)c2c1`: the MIC was 52 µg/mL against Escherichia coli [1]; 6.5 µg/mL against Escherichia coli [2]; 52 µg/mL in the assay with Bacillus subtilis; 52 µg/mL against Pseudomonas aeruginosa; 26 µg/mL in the assay with Salmonella typhimurium; over 104 µg/mL against Vibrio cholerae. In addition, the MIC in the assay with Shigella boydii was 26 µg/mL; against Klebsiella pneumoniae it was 26 µg/mL; in the assay on Klebsiella aerogenes, 52 µg/mL; against Acinetobacter baumannii it was 52 µg/mL; with Edwardsiella tarda, 26 µg/mL; in the assay on Morganella morganii, over 104 µg/mL. Inhibition of growth in the assay on Staphylococcus aureus (MIC) required 6.5 µg/mL.

As for `CCCCCCCCCCCCCCOc1ccc2[nH]cc(CCN)c2c1.Cl`, the MIC against Escherichia coli [1] was over 119 µg/mL; against Escherichia coli [2], over 119 µg/mL; with Bacillus subtilis, 15 µg/mL; in the assay with Pseudomonas aeruginosa, over 119 µg/mL; against Salmonella typhimurium, over 119 µg/mL; in the assay on Vibrio cholerae it was over 119 µg/mL. The MIC in the assay with Shigella boydii, with Klebsiella pneumoniae, in the assay on Klebsiella aerogenes, against Acinetobacter baumannii, in the assay with Edwardsiella tarda and with Morganella morganii was over 119 µg/mL in each case. In the assay on Staphylococcus aureus, this compound had an MIC of 3.4 to 30 µg/mL. In the assay with Escherichia coli [3], this compound displayed an Activity of 11%.

For `Cl.NCCc1c[nH]c2ccc(OCCCCCCCc3ccccc3)cc12`, the MIC amounted to 14 µg/mL against Escherichia coli [1]; 1.8 µg/mL against Escherichia coli [2]; 1.8 µg/mL with Bacillus subtilis; 56 µg/mL with Pseudomonas aeruginosa; 7 µg/mL in the assay on Salmonella typhimurium; 7 µg/mL against Vibrio cholerae. The MIC with Shigella boydii is 7 µg/mL; in the assay with Klebsiella pneumoniae, 7 µg/mL; against Klebsiella aerogenes, 14 µg/mL; against Acinetobacter baumannii, 7 µg/mL; in the assay with Edwardsiella tarda it was 28 µg/mL; in the assay with Morganella morganii, over 112 µg/mL. 3.5 µg/mL was the least that counted as inhibitory in the assay on Staphylococcus aureus (MIC).

`COc1ccc2[nH]cc(CCN)c2c1` [5-METHOXYTRYPTAMINE]: the MIC in the assay on Escherichia coli [1], with Escherichia coli [2], in the assay on Bacillus subtilis, with Acinetobacter baumannii and against Staphylococcus aureus was over 60.8 µg/mL each time.

With `Cc1[nH]c2ccc(O)cc2c1CCN`, the MIC against Escherichia coli [1], in the assay on Escherichia coli [2], in the assay with Bacillus subtilis, against Acinetobacter baumannii and against Staphylococcus aureus was over 60.8 µg/mL each time.

Consider `CC(C)CCCC(C)CCOc1ccc2[nH]cc(CCN)c2c1.Cl` (stereo unspecified), for which the MIC against Escherichia coli [1] is 13 µg/mL; against Escherichia coli [2], 3.2 µg/mL; in the assay on Bacillus subtilis, 1.6 µg/mL; against Pseudomonas aeruginosa, 25 µg/mL; against Salmonella typhimurium, 6.3 µg/mL; in the assay on Vibrio cholerae, 6.3 µg/mL. Besides, the MIC with Shigella boydii is 6.3 µg/mL; in the assay on Klebsiella pneumoniae, 13 µg/mL; in the assay on Klebsiella aerogenes, 13 µg/mL; against Acinetobacter baumannii, 13 µg/mL; with Edwardsiella tarda it was 25 µg/mL; against Morganella morganii, over 101 µg/mL. Further, in the assay with Staphylococcus aureus, inhibition of growth (MIC) required 6.3 µg/mL.

Turning to `COc1ccc2c(CCN)c[nH]c2c1`, the MIC in the assay on Escherichia coli [1], against Escherichia coli [2], against Bacillus subtilis, against Acinetobacter baumannii and in the assay on Staphylococcus aureus was over 60.8 µg/mL in each case.

As to `CCCCCCCCCOc1ccc2[nH]ccc2c1`, the MIC with Escherichia coli [1], in the assay on Escherichia coli [2], against Bacillus subtilis, in the assay with Pseudomonas aeruginosa, with Salmonella typhimurium and with Vibrio cholerae was over 83 µg/mL in each case. The MIC against Shigella boydii, with Klebsiella pneumoniae, against Klebsiella aerogenes, against Acinetobacter baumannii, against Edwardsiella tarda and in the assay with Morganella morganii was over 83 µg/mL each time. Moreover, the MIC with Staphylococcus aureus is over 83 µg/mL.

For the compound `NCCc1c[nH]c2ccccc12` [TRYPTAMINE], the MIC in the assay with Escherichia coli [1], in the assay on Escherichia coli [2], with Bacillus subtilis, with Acinetobacter baumannii and in the assay with Staphylococcus aureus was over 51 µg/mL in each case.

Take `NCCc1c[nH]c2ccc(O)cc12` [SEROTONIN]: the MIC against Escherichia coli [1], in the assay with Escherichia coli [2], in the assay on Bacillus subtilis, in the assay on Acinetobacter baumannii and in the assay with Staphylococcus aureus was over 56.4 µg/mL in each case.

Consider `CCCCCCCCCCCCCCCOc1ccc2[nH]cc(CCN)c2c1.Cl`, for which the MIC with Escherichia coli [1], in the assay on Escherichia coli [2], with Bacillus subtilis, in the assay on Pseudomonas aeruginosa, in the assay on Salmonella typhimurium and in the assay with Vibrio cholerae was over 124 µg/mL in each case. Moreover, the MIC against Shigella boydii, in the assay on Klebsiella pneumoniae, against Klebsiella aerogenes, in the assay on Acinetobacter baumannii, in the assay on Edwardsiella tarda and against Morganella morganii was over 124 µg/mL throughout. The compound further showed an MIC in the assay on Staphylococcus aureus of over 124 µg/mL. Also, in the assay with Escherichia coli [3], the Activity is on record as 13%.

As to `CCCCCCCCCOc1cccc(CN)c1`, the MIC against Escherichia coli [1] was 9.4 µg/mL (≈ 37.7 µM); against Escherichia coli [2], 4.7 µg/mL (≈ 18.8 µM); with Bacillus subtilis it was 4.7 µg/mL (≈ 18.8 µM); against Pseudomonas aeruginosa, over 75 µg/mL; in the assay with Salmonella typhimurium, 4.7 µg/mL (≈ 18.8 µM); against Vibrio cholerae, 4.7 µg/mL (≈ 18.8 µM). The MIC in the assay with Shigella boydii came out at 9.4 µg/mL (≈ 37.7 µM); against Klebsiella pneumoniae, 9.4 µg/mL (≈ 37.7 µM); against Klebsiella aerogenes it was 9.4 µg/mL (≈ 37.7 µM); with Acinetobacter baumannii it was 9.4 µg/mL (≈ 37.7 µM); against Edwardsiella tarda it was 19 µg/mL (≈ 76.2 µM); against Morganella morganii, 38 µg/mL (≈ 152 µM). In the assay on Staphylococcus aureus, this compound showed an MIC of 9.4 µg/mL (≈ 37.7 µM).

Turning to `CCCCOc1ccc2[nH]cc(CCN)c2c1.Cl`, the MIC with Escherichia coli [1] was over 74.3 µg/mL; against Escherichia coli [2], over 74.3 µg/mL; in the assay with Bacillus subtilis, over 74.3 µg/mL; in the assay with Pseudomonas aeruginosa, over 74 µg/mL; with Salmonella typhimurium it was over 74 µg/mL; in the assay with Vibrio cholerae, over 74 µg/mL. Further, the MIC in the assay with Shigella boydii is over 74 µg/mL; in the assay with Klebsiella pneumoniae, over 74 µg/mL; against Klebsiella aerogenes it was over 74 µg/mL; against Acinetobacter baumannii, over 74.3 µg/mL; with Edwardsiella tarda, over 74 µg/mL; against Morganella morganii, over 74 µg/mL. For the same compound, the MIC against Staphylococcus aureus was over 74.3 µg/mL. This compound displayed an Activity with Escherichia coli [3] of 3%.

On to `CCCCCCCCCOc1ccc(CCN)cc1`, for which the MIC was 5.3 µg/mL (≈ 20.1 µM) in the assay on Escherichia coli [1]; 1.3 µg/mL (≈ 4.93 µM) in the assay on Escherichia coli [2]; 0.66 µg/mL (≈ 2.51 µM) against Bacillus subtilis; over 84 µg/mL against Pseudomonas aeruginosa; 5.3 µg/mL (≈ 20.1 µM) against Salmonella typhimurium; 5.3 µg/mL (≈ 20.1 µM) in the assay on Vibrio cholerae. Besides, the MIC was 5.3 µg/mL (≈ 20.1 µM) in the assay on Shigella boydii; 5.3 µg/mL (≈ 20.1 µM) against Klebsiella pneumoniae; 11 µg/mL (≈ 41.8 µM) against Klebsiella aerogenes; 5.3 µg/mL (≈ 20.1 µM) with Acinetobacter baumannii; over 84 µg/mL in the assay on Edwardsiella tarda; over 84 µg/mL against Morganella morganii. In the assay on Staphylococcus aureus, it took 2.6 µg/mL (≈ 9.87 µM) to inhibit growth (MIC).

`CCCCCCCCCOc1cccc(N)c1`: the MIC was over 40 µg/mL against Escherichia coli [1]; 10 µg/mL (≈ 42.5 µM) in the assay with Escherichia coli [2]; 40 µg/mL (≈ 170 µM) against Bacillus subtilis; over 80 µg/mL with Pseudomonas aeruginosa; over 80 µg/mL in the assay on Salmonella typhimurium; over 80 µg/mL against Vibrio cholerae. Moreover, the MIC against Shigella boydii, in the assay on Klebsiella pneumoniae, against Klebsiella aerogenes, in the assay on Acinetobacter baumannii, in the assay with Edwardsiella tarda and in the assay with Morganella morganii was over 80 µg/mL throughout. In the assay on Staphylococcus aureus, this compound had an MIC of over 80 µg/mL.
